Results reported in patent US7803792B2, “Quaternary ammonium compounds” (Asahi Kasei Pharma Corporation, priority 2002, dated 2010).

Target: T1, human IBAT (Homo sapiens, UniProt Q12908)
T1 construct: expressed in transfected cells; host or cells: Cos 7
T1 sequence (Q12908 1-348): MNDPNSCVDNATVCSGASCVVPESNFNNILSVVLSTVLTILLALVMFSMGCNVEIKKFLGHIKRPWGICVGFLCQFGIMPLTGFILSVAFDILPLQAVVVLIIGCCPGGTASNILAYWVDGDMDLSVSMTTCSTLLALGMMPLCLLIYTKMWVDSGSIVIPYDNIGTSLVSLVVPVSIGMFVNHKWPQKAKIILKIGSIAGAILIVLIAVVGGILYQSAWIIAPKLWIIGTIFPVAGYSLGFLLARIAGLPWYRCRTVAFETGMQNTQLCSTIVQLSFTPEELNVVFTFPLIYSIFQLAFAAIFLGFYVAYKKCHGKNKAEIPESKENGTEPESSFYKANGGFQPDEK
Assay: In vitro assay of temporarily expressed human IBAT transporter using Cos 7 cells (Test Example 8)
Type: cell-based
Conditions: Cos 7 cells temporarily expressing human IBAT; [3H] taurocholate 8 μM, 37° C., 60 minutes
Method: In Vitro Assay of Compounds Which Inhibit Temporarily Expressed Human IBAT Transporter or Rat IBAT Transporter Using Cos 7 Cells
In this test example, the in vitro assay of the compounds which inhibit temporarily expressed human IBAT transporter or rat IBAT transporter using Cos cells was carried out according to the method described in Am. J. Physiol., 274, G157-169.
That is, […] Cos 7 were inoculated on a 24-well cell plate. One day later, 0.3 μg per well of cDNA of a human IBAT or a rat IBAT was transfected by using FuGENE6 (manufactured by ROCHE PHARMACEUTICAL CO., LTD.). For the assay, the cells cultured for one day after the transfection were used and the following procedure was followed. The cells were washed once with an assay buffer, Hank's buffer solution containing 25 mM glucose and with 10 mM HEPES (pH 7.4), and then the assay buffer was replaced by an assay buffer to which the test compound was added. After adding [^3H] taurocholate to a final concentration of 8 μM, the cells were incubated at 37° C. for 60 minutes. [^3H] taurocholate was allowed to be incorporated in Cos 7 cells through human IBAT or rat IBAT. The reaction was stopped by washing twice with a buffer prepared by adding 1 mM taurocholate to the assay buffer and lyzing the cells with 0.2M NaOH. Measurement of radioactivity was carried out by introducing the cell lyzate in 4 ml of liquid scintillation cocktail, stirring the mixture well, and then measuring the radioactivity by a scintillation counter.

Going from `CCCCC1(CCCC)CS(=O)(=O)c2ccc(N(C)C)cc2C(c2cccc(NC(=S)NCCCCC[N+]34CCC(CC3)CC4)c2)N1` (stereo not drawn) [Example 1433] to `CCCCC1(CCCC)CS(=O)(=O)c2ccc(N(C)C)cc2C(c2cccc(NC(=S)NCCCCCC[N+]34CCC(CC3)CC4)c2)N1` (stereo not drawn) [Example 1810], the IC50 rises from 103 nM to 167 nM (1.6-fold). The first is the more potent here.

Compared with `CCCCC1(CCCC)CS(=O)(=O)c2ccc(N(C)C)cc2C(c2cccc(NC(=S)NCCCCCC[N+](C)(C)Cc3ccccc3)c2)N1` (stereo not drawn) [Example 1555], `CCCCCCCC[N+](C)(C)Cc1ccc(NC(=S)Nc2cccc(C3NC(CCCC)(CCCC)CS(=O)(=O)c4ccc(N(C)C)cc43)c2)cc1` (stereo not drawn) [Example 3412] is 2-fold lower in IC50: 153 nM for the first, 75 nM for the second.

`CCCCCC[N+](C)(C)Cc1ccc(NC(=S)Nc2cccc(C3NC(CCCC)(CCCC)CS(=O)(=O)c4ccc(N(C)C)cc43)c2)cc1` (stereo not drawn) [Example 3410] and `CCCCCCCCC[N+](C)(C)Cc1ccc(NC(=S)Nc2cccc(C3NC(CCCC)(CCCC)CS(=O)(=O)c4ccc(N(C)C)cc43)c2)cc1` (stereo not drawn) [Example 3413] are within 1.5-fold of each other in IC50: 68 nM for the first, 73 nM for the second.

Compared with `CCCCCCCCCC[N+](C)(C)Cc1ccc(NC(=S)Nc2cccc(C3NC(CCCC)(CCCC)CS(=O)(=O)c4ccc(N(C)C)cc43)c2)cc1` (stereo not drawn) [Example 3414], `CCCCC1(CCCC)CS(=O)(=O)c2ccc(N(C)C)cc2C(c2cccc(NC(=S)Nc3ccc(C[N+](C)(CCC)CCC)cc3)c2)N1` (stereo not drawn) [Example 3426] is 1.5-fold lower in IC50: 88 nM for the first, 58 nM for the second. The second is the more potent here.

`C=CC[N+](C)(C)Cc1ccc(NC(=S)Nc2cccc(C3NC(CCCC)(CCCC)CS(=O)(=O)c4ccc(N(C)C)cc43)c2)cc1` (stereo not drawn) [Example 3429] and `C#CC[N+](C)(C)Cc1ccc(NC(=S)Nc2cccc(C3NC(CCCC)(CCCC)CS(=O)(=O)c4ccc(N(C)C)cc43)c2)cc1` (stereo not drawn) [Example 3433] are the same in IC50: 55 nM for the first, 55 nM for the second.

`CCC#CC[N+](C)(C)Cc1ccc(NC(=S)Nc2cccc(C3NC(CCCC)(CCCC)CS(=O)(=O)c4ccc(N(C)C)cc43)c2)cc1` (stereo not drawn) [Example 3434] and `CCCCC1(CCCC)CS(=O)(=O)c2ccc(N(C)C)cc2C(c2cccc(NC(=S)Nc3ccc(C[N+](C)(C)CC(C)O)cc3)c2)N1` (stereo not drawn) [Example 3454] are within 1.5-fold of each other in IC50: 71 nM for the first, 68 nM for the second.

`CCCCC1(CCCC)CS(=O)(=O)c2ccc(N(C)C)cc2C(c2cccc(NC(=S)Nc3ccc(C[N+](C)(C)C(C)c4ccccc4)cc3)c2)N1` (stereo not drawn) [Example 3441] and `CCCCC1(CCCC)CS(=O)(=O)c2ccc(N(C)C)cc2C(c2cccc(NC(=S)Nc3ccc(C[N+](C)(C)CCOC(=O)c4ccccc4)cc3)c2)N1` (stereo not drawn) [Example 3558] are within 1.5-fold of each other in IC50: 85 nM for the first, 70 nM for the second.

`CCCCC1(CCCC)CS(=O)(=O)c2ccc(N(C)C)cc2C(c2cccc(NC(=S)Nc3ccc(C[N+](C)(C)Cc4cccs4)cc3)c2)N1` (stereo not drawn) [Example 3449] and `CCCCC1(CCCC)CS(=O)(=O)c2ccc(N(C)C)cc2C(c2cccc(NC(=S)Nc3ccc(C[n+]4cccc(CC)c4)cc3)c2)N1` (stereo not drawn) [Example 3722] are within 1.5-fold of each other in IC50: 55 nM for the first, 39 nM for the second.

`CCCCC1(CCCC)CS(=O)(=O)c2ccc(N(C)C)cc2C(c2cccc(NC(=S)Nc3ccc(C[N+]4(CC)CCCC4)cc3)c2)N1` (stereo not drawn) [Example 3568] and `CCCCC1(CCCC)CS(=O)(=O)c2ccc(N(C)C)cc2C(c2cccc(NC(=S)Nc3ccc(C[N+]4(C)CCCCC4)cc3)c2)N1` (stereo not drawn) [Example 3587] are within 1.5-fold of each other in IC50: 94 nM for the first, 70 nM for the second.

Going from `CCCCC1(CCCC)CS(=O)(=O)c2ccc(N(C)C)cc2C(c2cccc(NC(=S)Nc3ccc(C[N+]4(Cc5ccccc5)CCCCC4)cc3)c2)N1` (stereo not drawn) [Example 3593] to `CCCCC1(CCCC)CS(=O)(=O)c2ccc(N(C)C)cc2C(c2cccc(NC(=S)Nc3ccc(C[N+]4(Cc5ccccc5)CCCC(O)C4)cc3)c2)N1` (stereo not drawn) [Example 3604], the IC50 falls from 70 nM to 45 nM (1.6-fold). The second is the more potent here.

`CCCCC1(CCCC)CS(=O)(=O)c2ccc(N(C)C)cc2C(c2cccc(NC(=S)Nc3ccc(C[N+]4(C)CCC(O)CC4)cc3)c2)N1` (stereo not drawn) [Example 3599] and `CCCCC1(CCCC)CS(=O)(=O)c2ccc(N(C)C)cc2C(c2cccc(NC(=S)Nc3ccc(C[N+]45CCC(CC4)C(O)C5)cc3)c2)N1` (stereo not drawn) [Example 3697] are within 1.5-fold of each other in IC50: 54 nM for the first, 69 nM for the second.

First: CCCCC1(CCCC)CS(=O)(=O)c2ccc(N(C)C)cc2C(c2cccc(NC(=S)Nc3ccc(C[N+]45CCC(CC4)C(=O)C5)cc3)c2)N1 (stereo not drawn) [Example 3698]
Second: CCCCC1(CCCC)CS(=O)(=O)c2ccc(N(C)C)cc2C(c2cccc(NC(=S)Nc3ccc(C[n+]4cccc5c4CCCC5)cc3)c2)N1 (stereo not drawn) [Example 4221]
The IC50 of the first is 1.7-fold higher: 72 nM for the first, 43 nM for the second. The second is the more potent here.

Compared with `CCCCC1(CCCC)CS(=O)(=O)c2ccc(N(C)C)cc2C(c2cccc(NC(=S)Nc3ccc(C[n+]4ccccc4)cc3)c2)N1` (stereo not drawn) [Example 3708], `CCCCC1(CCCC)CS(=O)(=O)c2ccc(N(C)C)cc2C(c2cccc(NC(=S)Nc3ccc(C[n+]4ccc(-c5ccccc5)cc4)cc3)c2)N1` (stereo not drawn) [Example 3717] is 2.3-fold lower in IC50: 70 nM for the first, 30 nM for the second.

`CCCCC1(CCCC)CS(=O)(=O)c2ccc(N(C)C)cc2C(c2cccc(NC(=S)Nc3ccc(C[n+]4ccc(CCC)cc4)cc3)c2)N1` (stereo not drawn) [Example 3711] and `CCCCC1(CCCC)CS(=O)(=O)c2ccc(N(C)C)cc2C(c2cccc(NC(=S)Nc3ccc(C[n+]4ccc(CCCO)cc4)cc3)c2)N1` (stereo not drawn) [Example 3733] are within 1.5-fold of each other in IC50: 63 nM for the first, 57 nM for the second.

First: CCCCC(CCCC)c1cc[n+](Cc2ccc(NC(=S)Nc3cccc(C4NC(CCCC)(CCCC)CS(=O)(=O)c5ccc(N(C)C)cc54)c3)cc2)cc1 (stereo not drawn) [Example 3716]
Second: CCCCC1(CCCC)CS(=O)(=O)c2ccc(N(C)C)cc2C(c2cccc(NC(=S)Nc3ccc(C[n+]4ccc(C(C)=O)cc4)cc3)c2)N1 (stereo not drawn) [Example 3736]
The IC50 of the first is 1.8-fold higher: 89 nM for the first, 50 nM for the second.

`CCCCC1(CCCC)CS(=O)(=O)c2ccc(N(C)C)cc2C(c2cccc(NC(=S)Nc3ccc(C[n+]4cccc(-c5ccccc5)c4)cc3)c2)N1` (stereo not drawn) [Example 3724] and `CCCCC1(CCCC)CS(=O)(=O)c2ccc(N(C)C)cc2C(c2cccc(NC(=S)Nc3ccc(C[n+]4cccc(Cc5ccccc5)c4)cc3)c2)N1` (stereo not drawn) [Example 3725] are within 1.5-fold of each other in IC50: 69 nM for the first, 52 nM for the second.

`CCCCC1(CCCC)CS(=O)(=O)c2ccc(N(C)C)cc2C(c2cccc(NC(=S)Nc3ccc(C[n+]4cccc(-c5cccs5)c4)cc3)c2)N1` (stereo not drawn) [Example 3726] and `CCCCC1(CCCC)CS(=O)(=O)c2ccc(N(C)C)cc2C(c2cccc(NC(=S)Nc3ccc(C[n+]4cc(C)cc(-c5ccccc5)c4)cc3)c2)N1` (stereo not drawn) [Example 3730] are within 1.5-fold of each other in IC50: 73 nM for the first, 84 nM for the second.

`CCCCC1(CCCC)CS(=O)(=O)c2ccc(N(C)C)cc2C(c2cccc(NC(=S)Nc3ccc(C[n+]4ccc(C)c(C)c4)cc3)c2)N1` (stereo not drawn) [Example 3727] and `CCCCC1(CCCC)CS(=O)(=O)c2ccc(N(C)C)cc2C(c2cccc(NC(=S)Nc3ccc(C[n+]4cc(C)cc(C)c4)cc3)c2)N1` (stereo not drawn) [Example 3729] are within 1.5-fold of each other in IC50: 66 nM for the first, 88 nM for the second.

`CCCCC1(CCCC)CS(=O)(=O)c2ccc(N(C)C)cc2C(c2cccc(NC(=S)Nc3ccc(C[n+]4cccc(C(=O)c5ccccc5)c4)cc3)c2)N1` (stereo not drawn) [Example 3748] and `CCCCC1(CCCC)CS(=O)(=O)c2ccc(N(C)C)cc2C(c2cccc(NC(=S)Nc3ccc(C[n+]4cccc5ccccc54)cc3)c2)N1` (stereo not drawn) [Example 3768] are within 1.5-fold of each other in IC50: 81 nM for the first, 72 nM for the second.

`CCCCCCOC(=O)c1ccc[n+](Cc2ccc(NC(=S)Nc3cccc(C4NC(CCCC)(CCCC)CS(=O)(=O)c5ccc(N(C)C)cc54)c3)cc2)c1` (stereo not drawn) [Example 3750] and `CCCCC1(CCCC)CS(=O)(=O)c2ccc(N(C)C)cc2C(c2cccc(NC(=S)Nc3ccc(C[n+]4ccc(C(N)=O)cc4)cc3)c2)N1` (stereo not drawn) [Example 3754] are within 1.5-fold of each other in IC50: 75 nM for the first, 92 nM for the second.

`CCCCC1(CCCC)CS(=O)(=O)c2ccc(N(C)C)cc2C(c2cccc(NC(=S)Nc3ccc(C[n+]4ccc(CCc5ccncc5)cc4)cc3)c2)N1` (stereo not drawn) [Example 3764] and `CCCCC1(CCCC)CS(=O)(=O)c2ccc(N(C)C)cc2C(c2cccc(NC(=S)Nc3ccc(C[n+]4cccc5cc(C)ccc54)cc3)c2)N1` (stereo not drawn) [Example 3770] are within 1.5-fold of each other in IC50: 80 nM for the first, 57 nM for the second.

Going from `CCCCC1(CCCC)CS(=O)(=O)c2ccc(N(C)C)cc2C(c2cccc(NC(=S)Nc3ccc(C[n+]4cccc5cc(C(C)C)ccc54)cc3)c2)N1` (stereo not drawn) [Example 3772] to `CCCCC1(CCCC)CS(=O)(=O)c2ccc(N(C)C)cc2C(c2cccc(NC(=S)Nc3ccc(C[n+]4ccc5c(c4)CCCC5)cc3)c2)N1` (stereo not drawn) [Example 4223], the IC50 falls from 89 nM to 25 nM (3.6-fold). The second is the more potent here.

First: CCCCC1(CCCC)CS(=O)(=O)c2ccc(N(C)C)cc2C(c2cccc(NC(=S)CCCCC[N+]34CCC(CC3)C(O)C4)c2)N1 (stereo not drawn) [Example 3854]
Second: CCCCC1(CCCC)CS(=O)(=O)c2ccc(N(C)C)cc2C(c2cccc(NC(=S)Nc3cccc(C[N+](C)(C)CCCC)c3)c2)N1 (stereo not drawn) [Example 4226]
The IC50 of the first is 3.5-fold lower: 28 nM for the first, 99 nM for the second. The first is the more potent here.

Compared with `CCCCC1(CCCC)CS(=O)(=O)c2ccc(N(C)C)cc2C(c2cccc(NC(=S)Nc3cccc(C[N+](CC)(CC)CC)c3)c2)N1` (stereo not drawn) [Example 4232], `CCCCC1(CCCC)CS(=O)(=O)c2ccc(N(C)C)cc2C(c2cccc(NC(=S)Nc3cccc(C[N+](CC)(CC)CCCC)c3)c2)N1` (stereo not drawn) [Example 4233] is 2.2-fold lower in IC50: 99 nM for the first, 46 nM for the second.
